Activity calls are given as the source filed them.
What was measured:
[1] = biological target: T1, Sentrin-specific protease 8 (Homo sapiens, UniProt Q96LD8); assay: SENP8 protease inhibitors, SAR follow-up, biochemical, luminescence (AID 504501); type: functional
T1 sequence (Q96LD8 whole entry): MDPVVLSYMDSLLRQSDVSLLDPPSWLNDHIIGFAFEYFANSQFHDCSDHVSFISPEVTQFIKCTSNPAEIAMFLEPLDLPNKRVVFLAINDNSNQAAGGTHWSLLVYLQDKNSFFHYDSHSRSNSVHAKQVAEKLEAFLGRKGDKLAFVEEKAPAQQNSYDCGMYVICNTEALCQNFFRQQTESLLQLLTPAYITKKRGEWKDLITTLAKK

[2] = biological target: T2, Sentrin-specific protease 6 (Homo sapiens, UniProt Q9GZR1); assay: SAR Analysis of small molecule inhibitors of Sentrin-specific protease 6 (SENP6) using a Luminescent assay. [Related pubchem assays (depositor defined):AID2582, AID2599]; type: functional
T2 sequence (Q9GZR1 whole entry): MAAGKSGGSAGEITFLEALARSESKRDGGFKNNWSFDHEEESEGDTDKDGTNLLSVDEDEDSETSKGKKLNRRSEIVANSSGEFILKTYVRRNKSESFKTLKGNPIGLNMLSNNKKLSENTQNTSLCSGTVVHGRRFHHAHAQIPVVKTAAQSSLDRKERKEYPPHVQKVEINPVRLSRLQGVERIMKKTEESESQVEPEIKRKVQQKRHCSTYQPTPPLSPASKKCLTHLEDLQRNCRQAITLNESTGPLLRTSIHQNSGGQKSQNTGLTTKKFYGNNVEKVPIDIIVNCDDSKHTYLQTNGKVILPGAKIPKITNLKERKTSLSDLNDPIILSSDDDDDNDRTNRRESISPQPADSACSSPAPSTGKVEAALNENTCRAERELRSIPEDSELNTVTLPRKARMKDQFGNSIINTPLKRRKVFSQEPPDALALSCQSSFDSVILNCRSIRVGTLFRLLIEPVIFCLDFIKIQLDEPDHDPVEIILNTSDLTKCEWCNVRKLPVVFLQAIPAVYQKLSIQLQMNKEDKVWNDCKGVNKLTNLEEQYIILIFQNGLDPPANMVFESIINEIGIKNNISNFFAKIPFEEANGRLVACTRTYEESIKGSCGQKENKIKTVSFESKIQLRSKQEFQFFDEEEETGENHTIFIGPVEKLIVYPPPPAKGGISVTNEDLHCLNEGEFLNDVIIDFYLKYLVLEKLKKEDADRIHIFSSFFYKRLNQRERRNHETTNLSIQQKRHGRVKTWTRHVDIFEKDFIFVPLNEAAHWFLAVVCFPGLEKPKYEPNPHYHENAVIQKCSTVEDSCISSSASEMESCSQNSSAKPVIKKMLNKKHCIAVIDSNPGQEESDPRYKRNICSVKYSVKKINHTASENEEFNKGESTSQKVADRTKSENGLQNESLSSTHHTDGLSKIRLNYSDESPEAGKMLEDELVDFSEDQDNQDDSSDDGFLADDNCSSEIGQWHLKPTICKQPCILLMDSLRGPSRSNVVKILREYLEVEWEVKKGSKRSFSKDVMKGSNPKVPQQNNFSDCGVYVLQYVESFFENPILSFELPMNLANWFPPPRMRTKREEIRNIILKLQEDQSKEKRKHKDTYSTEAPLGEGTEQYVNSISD

Focal adhesion kinase 1 = Focal adhesion kinase 1 (Homo sapiens, UniProt Q05397); type: functional;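 note: measured as one member of a kinome panel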
[3] = biological target: Glycogen synthase kinase-3 beta (Homo sapiens, UniProt P49841); type: functional;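 note: value comes from a broad kinome profiling panel, with GSK3B as the panel member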
[4] = biological target: ALK tyrosine kinase receptor (Homo sapiens, UniProt Q9UM73); type: functional;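 note: ALK tested as one member of a kinase panel screen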
Sequence of ALK tyrosine kinase receptor (Q9UM73 whole entry): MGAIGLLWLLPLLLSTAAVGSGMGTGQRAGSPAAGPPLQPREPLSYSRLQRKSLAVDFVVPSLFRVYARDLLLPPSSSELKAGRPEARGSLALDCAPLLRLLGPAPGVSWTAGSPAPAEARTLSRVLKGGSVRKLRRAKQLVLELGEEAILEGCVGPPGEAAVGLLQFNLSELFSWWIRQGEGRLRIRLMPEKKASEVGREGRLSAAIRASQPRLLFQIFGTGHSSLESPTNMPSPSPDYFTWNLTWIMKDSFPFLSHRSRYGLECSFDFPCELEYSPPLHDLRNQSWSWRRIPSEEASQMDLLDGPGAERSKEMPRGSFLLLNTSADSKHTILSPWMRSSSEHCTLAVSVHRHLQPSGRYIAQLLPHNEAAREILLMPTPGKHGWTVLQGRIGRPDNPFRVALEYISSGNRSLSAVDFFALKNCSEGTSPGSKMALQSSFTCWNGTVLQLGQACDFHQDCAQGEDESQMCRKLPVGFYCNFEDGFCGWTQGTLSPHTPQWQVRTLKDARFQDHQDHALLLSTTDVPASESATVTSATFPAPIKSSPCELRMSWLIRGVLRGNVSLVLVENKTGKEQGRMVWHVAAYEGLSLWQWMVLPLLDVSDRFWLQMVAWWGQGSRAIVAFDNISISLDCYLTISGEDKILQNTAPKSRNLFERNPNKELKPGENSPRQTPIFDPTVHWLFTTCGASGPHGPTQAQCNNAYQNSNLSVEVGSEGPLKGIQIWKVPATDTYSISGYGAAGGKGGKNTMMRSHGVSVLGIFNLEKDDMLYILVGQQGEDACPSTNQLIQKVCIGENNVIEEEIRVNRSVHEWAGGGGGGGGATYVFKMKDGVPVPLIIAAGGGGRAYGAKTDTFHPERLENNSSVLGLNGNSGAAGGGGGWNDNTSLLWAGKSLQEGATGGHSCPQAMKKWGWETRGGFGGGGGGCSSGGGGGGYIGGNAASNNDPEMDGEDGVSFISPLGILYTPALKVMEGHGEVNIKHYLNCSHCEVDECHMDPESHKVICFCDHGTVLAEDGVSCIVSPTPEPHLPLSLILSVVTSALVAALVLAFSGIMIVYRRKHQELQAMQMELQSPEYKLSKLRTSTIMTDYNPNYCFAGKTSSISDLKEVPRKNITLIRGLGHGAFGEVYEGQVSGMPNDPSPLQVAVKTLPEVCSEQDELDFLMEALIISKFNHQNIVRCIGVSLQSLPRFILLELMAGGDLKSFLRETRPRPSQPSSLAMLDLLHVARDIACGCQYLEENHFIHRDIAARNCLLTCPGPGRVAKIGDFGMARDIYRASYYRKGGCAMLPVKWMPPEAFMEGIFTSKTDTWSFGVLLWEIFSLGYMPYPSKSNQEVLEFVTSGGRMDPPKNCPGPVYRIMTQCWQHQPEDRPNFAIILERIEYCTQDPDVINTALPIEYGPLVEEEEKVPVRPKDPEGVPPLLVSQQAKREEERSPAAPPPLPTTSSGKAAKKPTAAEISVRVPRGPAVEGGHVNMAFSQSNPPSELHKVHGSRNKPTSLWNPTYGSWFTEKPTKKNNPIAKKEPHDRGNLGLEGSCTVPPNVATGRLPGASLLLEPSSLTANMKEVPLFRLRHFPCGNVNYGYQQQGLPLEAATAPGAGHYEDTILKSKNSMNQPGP

[5] = biological target: Tyrosine-protein kinase ABL1 (Homo sapiens, UniProt P00519); type: functional
[6] = biological target: Fibroblast growth factor receptor 1 (Homo sapiens, UniProt P11362); type: functional
[7] = biological target: Vascular endothelial growth factor receptor 1 (Homo sapiens, UniProt P17948); type: functional;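 note: measured within a kinome-wide profiling panel, FLT1 as the panel member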
Sequence of Vascular endothelial growth factor receptor 1 (P17948 whole entry): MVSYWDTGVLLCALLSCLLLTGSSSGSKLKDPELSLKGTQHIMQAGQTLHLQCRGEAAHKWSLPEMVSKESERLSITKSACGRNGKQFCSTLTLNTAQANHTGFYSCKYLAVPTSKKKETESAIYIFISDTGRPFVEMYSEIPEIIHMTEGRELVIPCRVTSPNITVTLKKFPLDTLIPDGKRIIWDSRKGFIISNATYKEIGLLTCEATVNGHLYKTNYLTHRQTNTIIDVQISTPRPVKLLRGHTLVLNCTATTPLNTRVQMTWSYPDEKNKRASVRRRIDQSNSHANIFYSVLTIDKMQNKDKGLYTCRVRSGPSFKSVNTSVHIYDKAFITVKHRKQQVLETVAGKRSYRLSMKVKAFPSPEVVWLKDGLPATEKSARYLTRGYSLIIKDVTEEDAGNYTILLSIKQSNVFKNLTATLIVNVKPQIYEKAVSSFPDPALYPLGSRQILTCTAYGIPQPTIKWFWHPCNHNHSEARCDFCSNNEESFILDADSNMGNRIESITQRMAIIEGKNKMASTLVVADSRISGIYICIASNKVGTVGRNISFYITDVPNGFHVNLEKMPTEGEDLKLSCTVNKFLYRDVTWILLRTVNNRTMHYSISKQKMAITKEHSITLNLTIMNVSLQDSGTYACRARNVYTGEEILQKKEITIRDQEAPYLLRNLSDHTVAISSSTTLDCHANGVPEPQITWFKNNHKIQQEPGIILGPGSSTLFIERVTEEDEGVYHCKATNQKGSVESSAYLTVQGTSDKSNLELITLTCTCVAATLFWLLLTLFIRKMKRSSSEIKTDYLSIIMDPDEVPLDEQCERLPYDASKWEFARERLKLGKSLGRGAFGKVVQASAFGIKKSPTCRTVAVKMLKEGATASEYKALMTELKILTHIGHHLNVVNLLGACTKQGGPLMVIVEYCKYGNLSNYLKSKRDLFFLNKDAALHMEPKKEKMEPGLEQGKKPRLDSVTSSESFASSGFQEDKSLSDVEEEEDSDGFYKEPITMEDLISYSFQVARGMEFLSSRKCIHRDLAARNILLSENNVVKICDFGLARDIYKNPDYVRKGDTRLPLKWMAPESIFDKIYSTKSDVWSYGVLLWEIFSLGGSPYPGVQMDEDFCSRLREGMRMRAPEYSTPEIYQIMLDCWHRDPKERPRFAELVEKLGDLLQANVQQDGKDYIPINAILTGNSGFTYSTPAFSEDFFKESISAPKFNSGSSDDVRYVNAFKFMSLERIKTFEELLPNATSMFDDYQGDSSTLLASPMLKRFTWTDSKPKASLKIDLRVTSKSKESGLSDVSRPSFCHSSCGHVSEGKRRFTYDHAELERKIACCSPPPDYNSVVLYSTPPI

Aurora kinase B = Aurora kinase B (Homo sapiens, UniProt Q96GD4); type: functional
Sequence of Aurora kinase B (Q96GD4 whole entry): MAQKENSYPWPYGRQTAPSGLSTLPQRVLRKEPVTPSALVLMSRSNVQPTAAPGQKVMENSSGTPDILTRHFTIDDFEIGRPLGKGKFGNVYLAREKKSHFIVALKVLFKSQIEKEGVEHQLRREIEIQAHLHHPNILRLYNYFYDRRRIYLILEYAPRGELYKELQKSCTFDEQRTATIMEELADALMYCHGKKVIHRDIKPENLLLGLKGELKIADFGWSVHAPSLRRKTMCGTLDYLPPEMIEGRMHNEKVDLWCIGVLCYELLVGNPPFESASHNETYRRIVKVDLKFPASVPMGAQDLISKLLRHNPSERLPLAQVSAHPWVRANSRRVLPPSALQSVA

[8] = biological target: Macrophage-stimulating protein receptor (Homo sapiens, UniProt Q04912); assay: Navigating the Kinome. Panel member name: MST1R; type: functional
Sequence of Macrophage-stimulating protein receptor (Q04912 25-304 limits assumed): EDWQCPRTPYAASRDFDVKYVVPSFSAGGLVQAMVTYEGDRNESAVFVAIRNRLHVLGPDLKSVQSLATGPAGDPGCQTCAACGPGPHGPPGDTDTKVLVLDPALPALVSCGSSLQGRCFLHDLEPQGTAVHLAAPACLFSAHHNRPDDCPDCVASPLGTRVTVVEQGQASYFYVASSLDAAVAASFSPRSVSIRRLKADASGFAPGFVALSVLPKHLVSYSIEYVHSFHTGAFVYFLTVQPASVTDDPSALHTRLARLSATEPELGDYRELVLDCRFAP
Sequence of Macrophage-stimulating protein receptor (Q04912 310-1400 limits assumed): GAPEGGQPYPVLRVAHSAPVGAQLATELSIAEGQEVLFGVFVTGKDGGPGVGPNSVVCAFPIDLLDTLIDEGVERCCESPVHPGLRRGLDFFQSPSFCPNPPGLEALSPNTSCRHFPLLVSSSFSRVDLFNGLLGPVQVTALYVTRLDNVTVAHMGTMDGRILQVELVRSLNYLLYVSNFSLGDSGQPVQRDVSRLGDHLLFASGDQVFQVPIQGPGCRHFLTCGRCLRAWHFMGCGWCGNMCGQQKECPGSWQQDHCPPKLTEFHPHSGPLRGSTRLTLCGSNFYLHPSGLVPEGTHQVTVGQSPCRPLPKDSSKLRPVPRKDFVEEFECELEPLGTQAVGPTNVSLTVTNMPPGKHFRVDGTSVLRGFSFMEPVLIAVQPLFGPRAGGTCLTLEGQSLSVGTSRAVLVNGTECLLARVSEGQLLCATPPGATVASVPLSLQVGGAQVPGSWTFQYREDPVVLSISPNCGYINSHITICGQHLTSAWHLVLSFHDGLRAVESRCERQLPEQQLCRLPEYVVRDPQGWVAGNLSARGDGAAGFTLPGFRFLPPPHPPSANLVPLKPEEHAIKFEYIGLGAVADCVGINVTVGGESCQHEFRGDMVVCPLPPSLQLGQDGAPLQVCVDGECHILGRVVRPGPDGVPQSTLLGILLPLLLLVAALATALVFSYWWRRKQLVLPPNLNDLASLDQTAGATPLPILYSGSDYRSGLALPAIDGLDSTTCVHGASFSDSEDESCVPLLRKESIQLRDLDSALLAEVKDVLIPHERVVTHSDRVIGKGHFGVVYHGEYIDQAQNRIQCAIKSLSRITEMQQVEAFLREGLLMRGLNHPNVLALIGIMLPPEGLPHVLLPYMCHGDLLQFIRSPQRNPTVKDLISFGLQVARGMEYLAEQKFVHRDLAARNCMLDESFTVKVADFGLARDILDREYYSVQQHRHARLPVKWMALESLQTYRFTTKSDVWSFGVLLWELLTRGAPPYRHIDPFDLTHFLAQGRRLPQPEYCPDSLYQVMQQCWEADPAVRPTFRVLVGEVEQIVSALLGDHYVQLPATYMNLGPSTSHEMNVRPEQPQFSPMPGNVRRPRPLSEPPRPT

[9] = biological target: Leucine-rich repeat serine/threonine-protein kinase 2 (Homo sapiens, UniProt Q5S007); type: functional;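 note: value from a broad kinome-wide panel profiling study in which LRRK2 was one of the kinases tested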
[10] = biological target: T3, Dual specificity protein phosphatase 3 (Homo sapiens, UniProt P51452); assay: VHR1 phosphatase inhibitors, biochemical (AID 1878)
T3 sequence (P51452 whole entry): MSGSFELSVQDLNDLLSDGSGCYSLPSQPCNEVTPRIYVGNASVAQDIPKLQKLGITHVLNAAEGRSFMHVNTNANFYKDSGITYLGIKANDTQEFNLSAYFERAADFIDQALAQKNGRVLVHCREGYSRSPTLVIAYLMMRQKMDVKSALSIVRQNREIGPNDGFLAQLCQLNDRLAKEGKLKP

[11] = activation of PKA-R1A holoenzyme dissociation, dose response, counter-screen for PKA-R2B activator project, biochemical, Cy5-IP20 fluorescence polarization, 1536-well, triplicate (AID 504896)
[12] = biological target: T3, Dual specificity protein phosphatase 3; assay: VHR1 phosphatase inhibitors, primary screen, biochemical, absorbance, uHTS (AID 1654)

O=C(NNc1cc(N2CCCC2)nc(N2CCCC2)n1)c1ccc([N+](=O)[O-])cc1
IC50 [1]: 3.37 µM (active) | IC50 [2]: 1.43 µM (active)

O=C(Cc1cccs1)Nc1nc2ccccc2s1
Ki (Focal adhesion kinase 1): > 6.31 µM (inactive) | Ki [3]: 0.501 µM (active) | Ki [4]: 2.51 µM (active) | Ki [5]: > 2.51 µM (inactive) | Ki [6]: 0.631 µM (active) | Ki [7]: 3.16 µM (active) | Ki (Aurora kinase B): 1 µM (active) | Ki [8]: 2 µM (active) | Ki [9]: 0.794 µM (active)

O=S(=O)(O)c1cccc2c(N=Nc3ccc(O)c4ncccc34)cccc12
IC50 [10]: 1.7 µM (active) | EC50 [11]: > 114 µM (inactive) | IC50 [12]: 2.28 µM (active)
